Reference: paper PMC9065877, “Safety, tolerability and pharmacokinetics of the oligomer modulator anle138b with exposure levels sufficient for therapeutic efficacy in a murine Parkinson model: A randomised, double-blind, placebo-controlled phase 1a trial” (EBioMedicine, 2022)

System: striatal dopamine (DA) release in MI2 mice
Assay: Dose-response study in MI2 mice: striatal dopamine release by in vivo microdialysis
Set-up: species or system mouse
Conditions: up to 300 mg/kg/day in food
Procedure: An anle138b pharmacodynamics dose-response study was performed using MI2 mice, a novel model of α-synucleinopathy characterized by a progressive PD-like phenotype including accumulation of α-synuclein inclusions in nigrostriatal dopaminergic neurons and impairment of striatal dopamine (DA) release (Wegrzynowicz et al., 2019). The research was carried out in accordance with the Animals (Scientific Procedures) Act 1986 Amendment Regulations 2012 after the review by the University of Cambridge Animal Welfare and Ethical Review Body (AWERB), under the project license 70/8383. Anle138b treatment was commenced at 6 months, an age when impairment of striatal DA release is already observed in MI2 mice, but prior to nigral neuronal loss. […] After 2 months of treatment (at the age of 8 months), striatal release of DA was analysed using in vivo microdialysis, as previously reported (Wegrzynowicz et al., 2019). […] DA levels in the microdialysates were measured by high performance liquid chromatography with electrochemical detection, as described in (Garcia-Reitböck et al., 2010). […] The obtained chromatograms were analysed with Chromeleon Chromatography Data System (V 6·2; Dionex). […]

## Brc1cccc(-c2cc(-c3ccc4c(c3)OCO4)n[nH]2)c1 [anle138b, 3-(1,3-benzodioxol-5-yl)-5-(3-bromophenyl)-1H-pyrazole]
  Effect on striatal dopamine release at higher doses: stabile maximal effects were observed
